The values below come from patent publication US7279161B2, “Factor IX/factor IXa activating antibodies and antibody derivatives” (Baxter Aktiengesellschaft, priority 1999, dated 2007).

Entries after “also recorded” stand apart in the source; their conditions may differ.

The target in one experiment is T1, human FIXa (Homo sapiens, UniProt P00740).
T1 construct: with (+) and without (−) addition of 50 ng human FIXaβ; purchased ERL (Enzyme Research Laboratories)
The experiment in a line: Chromogenic FVIII-like (FXa generation) assay with human FIXa added. The experiment is classed as biochemical. To be noted: for FIXa activating activity in chromogenic assay: data not shown. How it is done: The chromogenic activity of these antibody preparations was measured in the following FXa generation kinetic assay: 10 μg of monoclonal antibody (in 25 μl) were transferred to microtiter plate wells and warmed to 37° C. Chromogenic substrate (S-2222), synthetic thrombin inhibitor (I-2581), factor IXa and FX were reconstituted in sterile water and FIXa/FX (both bovine) were mixed with phospholipids according to the supplier's protocol. Per reaction, 50 μl of the phospholipid/FIXa/FX solution were combined with 25 μl CaCl2 (25 mM) and 50 μl of the substrate/inhibitor cocktail. To start the reaction, 125 μl of the premix were added to the monoclonal antibody solution in the microtiter plates and incubated at 37° C. Absorbance at 405 nm and 490 nm of the samples was read at various times (5 min to 2 h) against a reagent blank ([…] TBS instead of monoclonal antibodies) in a Labsystems iEMS Reader MF™ microtiter plate reader using GENESIS™ software. In parallel, the same reactions were performed except that 50 ng human FIXa were added per reaction.
To analyze the FVIII-like (FIXa activating) activity of the peptides, an assay system based on a commercial available FVIII assay was developed (see examples 2 and 4). The basic principle is, that without a cofactor, FIXa will have very limited activity towards its natural substrate FX. […] The amount of FXa generated is monitored by cleavage of a chromogenic substrate. The principle of the revised chromogenic assay is described for two representative peptides: A1/3 and A1/5 (Table 2). Briefly, 25 μl aliquots of peptide stock solution (in imidazole buffer (IZ) 50 mM imidazole, 100 mM NaCl, pH 7.2) were transferred to microtiter plate wells and warmed to 37° C. Chromogenic FXa substrate (S-2222), synthetic thrombin inhibitor (I-2581), bovine FIXa and bovine FX were reconstituted in sterile water and FIXa/FX mixed with phospholipids according to the supplier's protocol. […] Per reaction, 50 μl of the phospholipid/FIXa/FX solution were combined with 25 μl CaCl2 (25 mM) and 50 μl of the substrate/inhibitor cocktail. To start the reaction, 125 μl of the premix were added to the peptide solution in the microtiter plate and incubated at 37° C. Absorbance at 405 nm and 490 nm of the samples was read at various times (5 min to 2 h) against a reagent blank in a Labsystems iEMS Reader MF™ microtiter plate reader using GENESIS™ software.

The subject of a further experiment is FVIII deficient plasma. The experiment in a line: aPTT based one stage clotting assay in FVIII deficient plasma. The experiment is classed as biochemical, human. To be noted: for one-stage clotting time (printed in brackets after 'strong reduction' / 'strongly active'): 2.2 nM human FIXa. Here is the method: During normal hemostasis, FIX becomes initially activated either by the tissue factor (TF)/factor VIIa pathway or later on by activated factor XI (FXIa). Subsequent to its activation, FIXa associates on the platelet surface in a membrane bound complex with activated FVIII. […] Different amounts of antibody 193/AD3 or mouse IgG (as a control) were used in a standard aPTT based one stage clotting assay. Briefly, 100 μl of antibody-containing samples were incubated with 100 μl of FVIII deficient plasma (DP) and with 100 μl of DAPTTIN (PTT Reagent for determining activated Thromboplastin Time; IMMUNO AG) reagent, in a KC10A clotting analyzer. Where indicated, a total amount of 50 ng activated FIX was included in the reaction mixture. After a 4 minute incubation, the reaction was started by the addition of 100 μl CaCl2 (25 mM).
The peptides were also analyzed for their potential to reduce the clotting time in a FVIII deficient plasma. The aPTT based one stage clotting assay was essentially done as described (see example 6). Clotting times (time from starting the reaction to the “clot”-formation were compared either against FVIII, a buffer control (IZ) or a control peptide (scrambled version). The results of two typical clotting experiments done with two different aPTT reagents (DAPTTIN and Pathromtin SL) are shown in table 3A and table 3B.

[1] abbreviates: 12.5 nM peptide, (+) presence of activated human FIX.
The mark [2] stands for this setting: 12.5 nM peptide, (−) absence of activated human FIX.
[3] abbreviates: 0.125 μM peptide, (+) presence of activated human FIX.
Where [4] appears, read: 0.125 μM peptide, (−) absence of activated human FIX.
Setting [5] is: 1.25 μM peptide, (+) presence of activated human FIX.
Setting [6] is: 1.25 μM peptide, (−) absence of activated human FIX.
The mark [7] stands for this setting: 12.5 μM peptide, (+) presence of activated human FIX.
[8] abbreviates: 12.5 μM peptide, (−) absence of activated human FIX.
The mark [9] stands for this setting: in the presence of 2.2 nM human FIXa.

Take EEEEGGGFTVNWYFDEEE [B1/6]: the “FIXa activating activity in chromogenic assay” value at human FIXa is “no activity”. Moreover, the clotting time stood at 100 s in the experiment with FVIII deficient plasma (setting [1]); 111 s with FVIII deficient plasma (setting [2]); 101 s in the experiment with FVIII deficient plasma (setting [3]); 111 s with FVIII deficient plasma (setting [4]); 100 s with FVIII deficient plasma (setting [5]); 110 s in the experiment with FVIII deficient plasma (setting [6]). Moreover, the clotting time with FVIII deficient plasma (setting [7]) is 103 s; with FVIII deficient plasma (setting [8]), 115 s.
For RRREGAGYYVNWYFDRRR [A1/3-2], on human FIXa (Alanine scan), the chromogenic activity entry is on record as “high chromogenic activity”. In the experiment with FVIII deficient plasma (12.5 μM), the “one-stage clotting time (printed in brackets after 'strong reduction' / 'strongly active')” value was found to be 34 s. Also, the one-stage clotting activity entry in the experiment with FVIII deficient plasma (setting [9]) is recorded as “strong reduction of the one-stage clotting time”.
For the sequence RRREGGAYYVNWYFDRRR [A1/3-3], the “final concentration of optimum chromogenic activity” value on human FIXa was around 12 µM. The “one-stage clotting time (printed in brackets after 'strong reduction' / 'strongly active')” value in the experiment on FVIII deficient plasma (12.5 μM) is 31 s. Moreover, the one-stage clotting activity result in the experiment with FVIII deficient plasma (higher concentrations (12.5 μM), absence of FIXa) is listed as “somewhat inhibitory”; in the experiment on FVIII deficient plasma (setting [9]) it was “strongly active”.
Consider RRREGGEYYVNWYFDRRR [A1/3-24], for which the “chromogenic FVIII-like activity at higher concentrations” value on human FIXa (up to 24 μM) is reported as “lost activity”. Further, in the experiment on FVIII deficient plasma (absence of human FIXa), the procoagulant activity entry was “no procoagulant activity”. For the same sequence, the one-stage clotting activity entry in the experiment on FVIII deficient plasma (setting [9]) is “strongly active”.
With RRREGGGFTVNWYFDRRR [B1/7], the “FIXa activating activity (generation of FXa)” value on human FIXa (2.4 μM peptide, 2.3 nM human FIXa) is “well measurable generation of FXa; also recorded: measureable generation of Fxa”. The “FXa generation without FIXa and FX” value at human FIXa (2.4 μM peptide, w/o FIXa/FX) was “no FXa was synthesized; also recorded: no reaction is detectable”. Further, the clotting time in the experiment on FVIII deficient plasma (setting [1]) came to 99 s; in the experiment on FVIII deficient plasma (setting [2]), 110 s; in the experiment with FVIII deficient plasma (setting [3]) it was 99 s; with FVIII deficient plasma (setting [4]) it was 109 s; in the experiment on FVIII deficient plasma (setting [5]), 92 s; with FVIII deficient plasma (setting [6]), 112 s. The clotting time in the experiment on FVIII deficient plasma (setting [7]) came out at 83 s; in the experiment with FVIII deficient plasma (setting [8]) it was 157 s.
For the sequence RRRFGVGYGETNFDWRRR [B1/7scr3], on human FIXa, the “FIXa activating activity in chromogenic assay” value is “no activity”. Also, the clotting time was determined as 94 s in the experiment with FVIII deficient plasma (setting [1]); 105 s in the experiment on FVIII deficient plasma (setting [2]); 94 s in the experiment on FVIII deficient plasma (setting [3]); 106 s in the experiment with FVIII deficient plasma (setting [4]); 94 s with FVIII deficient plasma (setting [5]); 105 s in the experiment on FVIII deficient plasma (setting [6]). Further, the clotting time in the experiment with FVIII deficient plasma (setting [7]) is 102 s; with FVIII deficient plasma (setting [8]), 115 s.
For RRRGEYGVYWNGDFYRRR [A1/3-scr3], the “chromogenic FVIII-like activity (FXa generation)” value at human FIXa (2.9 nM human FIXa) is listed as “did not give any significant chromogenic activity”. The average clotting time in the experiment on FVIII deficient plasma (Table 3A Exp. 1, DAPTTIN, 2.5 μM, 2.2 nM FIXa) came to 96 s; with FVIII deficient plasma (Table 3A Exp. 1, DAPTTIN, 2.5 μM, w/o FIXa), 108 s; with FVIII deficient plasma (Table 3A Exp. 1, DAPTTIN, 7.5 μM, 2.2 nM FIXa), 101 s; with FVIII deficient plasma (Table 3A Exp. 1, DAPTTIN, 7.5 μM, w/o FIXa), 114 s; in the experiment on FVIII deficient plasma (Table 3A Exp. 1, DAPTTIN, 12.5 μM, 2.2 nM FIXa), 104 s; with FVIII deficient plasma (Table 3A Exp. 1, DAPTTIN, 12.5 μM, w/o FIXa) it was 117 s. Moreover, the average clotting time amounted to 106 s in the experiment with FVIII deficient plasma (Table 3A Exp. 1, DAPTTIN, 15 μM, 2.2 nM FIXa) and 122 s in the experiment with FVIII deficient plasma (Table 3A Exp. 1, DAPTTIN, 15 μM, w/o FIXa). The clotting time is 96.3 s in the experiment with FVIII deficient plasma (Table 3A Exp. 1, DAPTTIN, 2.5 μM, 2.2 nM FIXa, duplicate 1); 95.2 s in the experiment with FVIII deficient plasma (Table 3A Exp. 1, DAPTTIN, 2.5 μM, 2.2 nM FIXa, duplicate 2); 107.8 s in the experiment with FVIII deficient plasma (Table 3A Exp. 1, DAPTTIN, 2.5 μM, w/o FIXa, duplicate 1); 107.4 s in the experiment on FVIII deficient plasma (Table 3A Exp. 1, DAPTTIN, 2.5 μM, w/o FIXa, duplicate 2); 100.8 s in the experiment with FVIII deficient plasma (Table 3A Exp. 1, DAPTTIN, 7.5 μM, 2.2 nM FIXa, duplicate 1); 100.6 s with FVIII deficient plasma (Table 3A Exp. 1, DAPTTIN, 7.5 μM, 2.2 nM FIXa, duplicate 2). Moreover, the clotting time in the experiment on FVIII deficient plasma (Table 3A Exp. 1, DAPTTIN, 7.5 μM, w/o FIXa, duplicate 1) is 114.2 s; with FVIII deficient plasma (Table 3A Exp. 1, DAPTTIN, 7.5 μM, w/o FIXa, duplicate 2), 113.9 s; with FVIII deficient plasma (Table 3A Exp. 1, DAPTTIN, 12.5 μM, 2.2 nM FIXa, duplicate 1), 103.1 s; with FVIII deficient plasma (Table 3A Exp. 1, DAPTTIN, 12.5 μM, 2.2 nM FIXa, duplicate 2), 104.5 s; in the experiment on FVIII deficient plasma (Table 3A Exp. 1, DAPTTIN, 12.5 μM, w/o FIXa, duplicate 1), 116 s; in the experiment on FVIII deficient plasma (Table 3A Exp. 1, DAPTTIN, 12.5 μM, w/o FIXa, duplicate 2), 117.6 s. Moreover, the clotting time was determined as 106.1 s with FVIII deficient plasma (Table 3A Exp. 1, DAPTTIN, 15 μM, 2.2 nM FIXa, duplicate 1); 105.5 s with FVIII deficient plasma (Table 3A Exp. 1, DAPTTIN, 15 μM, 2.2 nM FIXa, duplicate 2); 122.5 s with FVIII deficient plasma (Table 3A Exp. 1, DAPTTIN, 15 μM, w/o FIXa, duplicate 1); 122 s in the experiment with FVIII deficient plasma (Table 3A Exp. 1, DAPTTIN, 15 μM, w/o FIXa, duplicate 2).
